This note sets out measurements from paper PMC10403075, “Short hydrocarbon stapled ApoC2-mimetic peptides activate lipoprotein lipase and lower plasma triglycerides in mice” (Frontiers in Cardiovascular Medicine, 2023).

Data set [1] has as its target T1, LPL from bovine milk (Bos taurus, UniProt P11151).
T1 construct: LPL from bovine milk (Sigma-Aldrich); purchased Sigma-Aldrich; host or cells: bovine milk (natural source)
T1 sequence (P11151 29-478): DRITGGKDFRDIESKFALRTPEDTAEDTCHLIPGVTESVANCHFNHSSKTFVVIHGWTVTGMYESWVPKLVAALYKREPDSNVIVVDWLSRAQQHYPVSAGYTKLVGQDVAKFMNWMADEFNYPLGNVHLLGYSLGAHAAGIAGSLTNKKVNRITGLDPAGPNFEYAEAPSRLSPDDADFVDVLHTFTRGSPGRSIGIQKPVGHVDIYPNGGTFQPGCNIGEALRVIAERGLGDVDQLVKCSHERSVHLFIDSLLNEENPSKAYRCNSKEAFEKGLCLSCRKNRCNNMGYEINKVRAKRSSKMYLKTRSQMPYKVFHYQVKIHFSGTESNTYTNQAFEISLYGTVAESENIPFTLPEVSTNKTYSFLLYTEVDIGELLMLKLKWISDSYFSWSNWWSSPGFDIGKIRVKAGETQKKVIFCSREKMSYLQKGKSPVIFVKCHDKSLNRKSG
The data set is described as follows: In vitro LPL activity assay (NEFA generation, ApoC2-deficient plasma substrate). The class given is biochemical. As to conditions: 0-2 µM peptide, ApoC2-deficient plasma substrate, NEFA read-out, triplicates; for EC50: 0.83 nM bovine milk LPL, 30 min on ice then 37°C 1 h, read-out: EC50 for stimulating lipolysis (LPL activation); for in vitro LPL activation, dose response (result in words): bovine milk LPL, 37°C 1 h. Here is the method: LPL activity was determined by measuring the generation of non-esterified fatty acids (NEFA). In a 96-well plate, 0–2 µM of an ApoC2 mimetic peptide, 0.83 nM of LPL from bovine milk (Sigma-Aldrich), ApoC2-deficient ethylenediaminetetraacetic acid (EDTA)-plasma (diluted with PBS to a final TG concentration of 0.67 mg/dl), 2 IU/ml heparin, 0.2% fatty acids free bovine serum albumin (BSA) (ICN Biomedicals), and PBS (Life Technologies) were combined in a final reaction volume of 50 μl. The reaction mixture was pre-incubated on ice for 30 min and incubated at 37°C for 1 h. NEFA were measured with a coupled enzyme reaction (Wako Diagnostics) in a Synergy H1 microplate reader (BioTek, USA).

The nature of data set [2]: DMPC vesicle clearance (solubilization) assay. The format is physicochemical. As to conditions: peptide 0-100 µM in 20 mM TRIS pH 8.2, DMPC vesicles 0.5 mg/ml in PBS, absorbance 660 nm, 1 h, 24°C. Here is the method:
Dimyristoyl Phosphatidyl Choline (DMPC) (Avanti 850345C) vesicles were made by sonication (0.5 mg/ml) in phosphate buffer saline (PBS). Peptides (0, 25, 50 and 100 µM) in 20 mM TRIS, pH 8.2 were added to DMPC vesicles (0.5 mg/ml) prepared by sonication in PBS and turbidity was monitored in a Victor^3 plate reader (Perkin Elmer, USA) by monitoring absorbance at 660 nm for 1 h at 24°C. Samples were shaken at 300 RPM. Absorbance over time was plotted and areas-under-the-curve (AOC) were calculated. PBS was used as a negative control sample and Triton X-100 at a final concentration of 1% (w/v) was used as positive control.

The target of data set [3] is Proteinase K (Parengyodontium album, UniProt P06873). The class given is in vitro ADME. As to conditions: peptide 0.1 mM, 16 ug/kg Proteinase K, 20 mM ammonium bicarbonate pH 8.2, 37°C, MALDI-TOF with internal standards, first time point 3 h, triplicates. Here is the method: (§1) Peptides (0.1 mM) were incubated at 37°C in 20 mM ammonium bicarbonate buffer at pH 8.2, with 10 ug/ml trypsin or […] Proteinase K. To test resistance to Pepsin, peptides (0.1 mM) were incubated with Pepsin (3 mg/ml) in 0.02M acetate buffer (pH 2). The amount of intact peptide was monitored over time by Matrix-assisted laser desorption/ionization time-of-flight (MALDI-TOF) on a Bruker Autoflex III instrument (Bruker Optics, Inc., USA). Internal standards (Bombesin, ACTH (1–17), ACTH (18–39) and Insulin) were used to quantify the relative amount of peptide in each sample.

For data set [4], the system named is trypsin. In words: Peptide proteolysis resistance, trypsin. The class given is in vitro ADME. The note with it: peptide 0.1 mM, 10 ug/ml trypsin, 20 mM ammonium bicarbonate pH 8.2, 37°C, MALDI-TOF with internal standards, first time point 3 h, triplicates. Here is the method:
as §1

Data set [5] deals with Pepsin. In words: Peptide proteolysis resistance, pepsin. The class given is in vitro ADME. The note with it: peptide 0.1 mM, pepsin 3 mg/ml, 0.02M acetate buffer pH 2, 1 h, MALDI-TOF with internal standards, triplicates. Here is the method: as §1
Data set [6] concerns Apoc2^h/h mice. In words: Plasma lipids in ApoC2-hypomorphic mice after peptide injection. The class given is in vivo, mouse. The note with it: single IP 1 umole/kg, n = 5. Here is the method: ApoC2–hypomorphic mice (Apoc2^h/h) ([25]) and human ApoC3-transgenic (hAPOC3-tg) mice ([26]) were fed a regular rodent chow diet (NIH-31 chow diet: Zeigler Brothers Inc.). Peptides dissolved in 20 mM TRIS (pH 8.2) or vehicle control were injected intraperitoneally or intravenously at the indicated concentrations. Blood samples were collected from the retro-orbital sinus with a heparinized capillary tube. Whole blood was centrifuged at 1,000 g for 20 min at 4°C to obtain plasma. All animal procedures were approved by the National Heart, Lung, and Blood Institute Animal Care and Use Committee (protocol #H-0050).

A short description of data set [7]: Circular dichroism spectroscopy. The class given is physicochemical. As to conditions: CD 190-250 nm. Here is the method: Circular dichroism (CD) spectra were acquired on a Chirascan Q100 spectrometer. CD spectra were recorded in the190–250 nm range, using a 0.1 cm quartz cell and analyzed with Bettsele® on-line software ([24]).

Positions of bridges follow the written chain, without caps; N, C: chain ends. Non-standard residues stand in square brackets, D forms with d. Residues, ends and D or L forms follow the SMILES beside them. R8 = C=CCCCCCC[C@@](C)(N)C(=O)O; S5 = C=CCCC[C@](C)(N)C(=O)O

Sequence of Proteinase K (P06873 106-384): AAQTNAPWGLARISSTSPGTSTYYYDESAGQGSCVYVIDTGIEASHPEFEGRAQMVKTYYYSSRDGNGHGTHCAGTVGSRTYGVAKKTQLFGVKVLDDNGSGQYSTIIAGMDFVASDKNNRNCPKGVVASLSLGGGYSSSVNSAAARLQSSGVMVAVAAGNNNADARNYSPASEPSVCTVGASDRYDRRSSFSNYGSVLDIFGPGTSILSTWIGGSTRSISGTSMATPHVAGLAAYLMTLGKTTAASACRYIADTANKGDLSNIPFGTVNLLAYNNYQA

For `CC[C@H](C)[C@@H]1NC(=O)CNC(=O)[C@H]([C@@H](C)O)NC(=O)[C@H](Cc2ccc(O)cc2)NC(=O)[C@H]([C@@H](C)O)NC(=O)[C@](C)(NC(=O)[C@H](CCSC)NC(=O)[C@H](C)NC(=O)[C@H](C)NC(=O)[C@@H](NC(=O)[C@H](CO)NC(=O)[C@H](CCCCN)NC(=O)[C@H](CO)NC(=O)[C@H](Cc2ccc(O)cc2)NC(=O)[C@H](CC(C)C)NC(=O)[C@H](CC(=O)O)NC(=O)[C@H](CCCNC(=N)N)NC(=O)[C@H](CC(C)C)NC(=O)[C@H](CCCCN)NC(=O)[C@@H](N)CCC(=O)O)[C@@H](C)O)CCCCCCC=CCCC[C@@](C)(C(=O)N[C@@H](CC(=O)O)C(=O)N[C@@H](CCC(N)=O)C(=O)N[C@H](C(=O)N[C@@H](CC(C)C)C(=O)N[C@@H](CO)C(=O)N[C@H](C(=O)N[C@@H](CC(C)C)C(=O)N[C@@H](CCCCN)C(=O)NCC(=O)N[C@@H](CCC(=O)O)C(=O)N[C@@H](CCC(=O)O)C(=O)O)C(C)C)C(C)C)NC(=O)[C@H](Cc2ccccc2)NC1=O` [P5] (H-EKLRDLYSKSTAAM[R8]TYTGIF[S5]DQVLSVLKGEE-OH; staple 15-22), the EC50 in data set [1] fell in the range of 25 to 33 nM.

With `CC[C@H](C)[C@H](NC(=O)CNC(=O)[C@@H](NC(=O)[C@H](Cc1ccc(O)cc1)NC(=O)[C@@H](NC(=O)[C@H](CO)NC(=O)[C@H](CCSC)NC(=O)[C@H](C)N)[C@@H](C)O)[C@@H](C)O)C(=O)N[C@@H](Cc1ccccc1)C(=O)N[C@H](C(=O)N[C@@H](CC(=O)O)C(=O)N[C@@H](CCC(N)=O)C(=O)N[C@H](C(=O)N[C@@H](CC(C)C)C(=O)N[C@@H](CO)C(=O)N[C@H](C(=O)N[C@@H](CC(C)C)C(=O)N[C@@H](CCCCN)C(=O)NCC(=O)N[C@@H](CCC(=O)O)C(=O)N[C@@H](CCC(=O)O)C(=O)O)C(C)C)C(C)C)[C@@H](C)O` [P8, reference compound] (H-AMSTYTGIFTDQVLSVLKGEE-OH), the DMPC vesicle solubilization result in data set [2] is “inactive”.

In the case of `CC[C@H](C)[C@@H]1NC(=O)CNC(=O)[C@H]([C@@H](C)O)NC(=O)[C@H](Cc2ccc(O)cc2)NC(=O)[C@H]([C@@H](C)O)NC(=O)[C@](C)(NC(=O)[C@H](CCSC)NC(=O)[C@H](C)N)CCCCCCC=CCCC[C@@](C)(C(=O)N[C@@H](CC(=O)O)C(=O)N[C@@H](CCC(N)=O)C(=O)N[C@H](C(=O)N[C@@H](CC(C)C)C(=O)N[C@@H](CO)C(=O)N[C@H](C(=O)N[C@@H](CC(C)C)C(=O)N[C@@H](CCCCN)C(=O)NCC(=O)N[C@@H](CCC(=O)O)C(=O)N[C@@H](CCC(=O)O)C(=O)O)C(C)C)C(C)C)NC(=O)[C@H](Cc2ccccc2)NC1=O` [P6] (H-AM[R8]TYTGIF[S5]DQVLSVLKGEE-OH; staple 3-10 (inferred); N-terminus and C-terminus assumed), the “in vitro LPL activation, dose response (result in words)” value in data set [1] is listed as “just as active”.

As for `CC[C@H](C)[C@H](NC(=O)CNC(=O)[C@]1(C)CCCC=CCCCCCC[C@@](C)(NC(=O)[C@H](CO)NC(=O)[C@H](CCCCN)NC(=O)[C@H](CO)NC(=O)[C@H](Cc2ccc(O)cc2)NC(=O)[C@H](CC(C)C)NC(=O)[C@H](CC(=O)O)NC(=O)[C@H](CCCNC(=N)N)NC(=O)[C@H](CC(C)C)NC(=O)[C@H](CCCCN)NC(=O)[C@@H](N)CCC(=O)O)C(=O)N[C@@H](C)C(=O)N[C@@H](C)C(=O)N[C@@H](CCSC)C(=O)N[C@@H](CO)C(=O)N[C@@H]([C@@H](C)O)C(=O)N[C@@H](Cc2ccc(O)cc2)C(=O)N1)C(=O)N[C@@H](Cc1ccccc1)C(=O)N[C@H](C(=O)N[C@@H](CC(=O)O)C(=O)N[C@@H](CCC(N)=O)C(=O)N[C@H](C(=O)N[C@@H](CC(C)C)C(=O)N[C@@H](CO)C(=O)N[C@H](C(=O)N[C@@H](CC(C)C)C(=O)N[C@@H](CCCCN)C(=O)NCC(=O)N[C@@H](CCC(=O)O)C(=O)N[C@@H](CCC(=O)O)C(=O)O)C(C)C)C(C)C)[C@@H](C)O` [P3] (H-EKLRDLYSKS[R8]AAMSTY[S5]GIFTDQVLSVLKGEE-OH; staple 11-18), the EC50 in data set [1] fell in the range of 25 to 33 nM.

As to `CCCCCCCC(=O)NC(C)(C)C(=O)N[C@@H](CCCC)C(=O)N[C@]1(C)CCCCCCC=CCCCC2(CCCC=CCCCCCC[C@@](C)(C(=O)N[C@@H](CCCCN)C(=O)N(C)CC(=O)N[C@H](CCC(=O)O)C(=O)N[C@H](CCC(=O)O)C(=O)O)NC(=O)[C@H](C(C)C)NC(=O)[C@H](CO)NC(=O)[C@H](CC(C)C)NC(=O)[C@H](C(C)C)NC(=O)[C@H](CCC(N)=O)NC(=O)[C@H](CC(=O)O)NC2=O)NC(=O)[C@H](Cc2ccccc2)NC(=O)[C@H]([C@@H](C)CC)NC(=O)CNC(=O)[C@H]([C@@H](C)O)NC(=O)[C@H](Cc2ccc(O)cc2)NC(=O)[C@H]([C@@H](C)O)NC1=O` (some centres unmarked) [SP2a], the “intact full-length peptide after Proteinase K incubation” value in data set [3] is recorded as “highly resistant to proteolysis”. For the same compound, the “in vitro LPL activation, dose response (result in words)” value in data set [1] was “more potent than SP1 and D6PV”. Also, in data set [4], the “intact full-length peptide after trypsin incubation” value is given as “highly resistant to proteolysis”. The “intact full-length peptide after pepsin incubation” value in data set [5] is reported as “highly resistant to proteolysis”. Moreover, the “plasma triglycerides, 1-hour time point” value in data set [6] (1 h, compared with D6PV) is recorded as “possibly less effective”. Besides, the “plasma triglycerides, 3-hour time point” value in data set [6] (3 h) is “lowered plasma triglycerides like D6PV”. Further, the “secondary structure by CD (result in words)” value in data set [7] is “highly helical”.
